Reference: US20080021056A1, “Fused, Tricyclic Sulfonamide Inhibitors of Gamma Secretase” (priority 2006, published 2008)

Biological target: T1, gamma-secretase (Homo sapiens, UniProt P49768)
T1 construct: partially purified extract of IMR-32 cell membranes as the gamma-secretase enzyme preparation; endogenous in cells; host or cells: IMR-32 cell membranes (partially purified extract)
Assay: Gamma-secretase APP enzyme assay
Format: biochemical
Conditions: cleavage of MBP-C125 Swe substrate at the Aβ40 site; partially purified extract of IMR-32 cell membranes; ELISA
From the text: The gamma-secretase APP enzyme assay was designed to measure the specific proteolytic cleavage of an APP substrate (MBP-C125 Swe fusion protein) at the Aβ40 site. The assay used a partially purified extract of IMR-32 cell membranes as the gamma-secretase enzyme preparation and a recombinant fusion protein containing the C-terminal 125 amino acids of the Swedish variant of the APP (MBP-C125swe) as the substrate. This assay involved two steps beginning with the enzymatic reaction generating a cleavage product that was captured with an immobilized antibody specific for the neo-epitope Aβ40 site. The captured cleavage product was then detected in a sandwich ELISA assay with a biotinylated reporter antibody that is specific to Aβ (17-28). Streptavidin-linked alkaline phosphatase was then added that would generate a fluorescent signal proportional to the amount of cleavage product. This assay was used to discover small molecule inhibitors of gamma-secretase.
Briefly, a 149 mg/ml solution of BIGCHAP detergent was made with water at 42° C. and then rotated for 30 minutes at the same temperatures This warmed solution of BigCHAPS (N,N-Bis(3-D-gluconamidopropyl)cholamide) detergent was used to dissolve Brain Extract Type-V (lipid containing a minimum of 40% phosphatidylethanolamine) from Signa (St. Louis, Mo.) to a concentration of 8 mg/ml. This solution containing BigCHAPS and lipid at 8 mg/ml is then diluted to 0.53 mg/ml lipid with a pre-warmed solution of Hepes and sodium chloride. This final solution containing Hepes buffer, sodium chloride, BigCHAPS detergent and lipid is used to create working solutions of both gamma-secretase (25 Units) and the MBP-C125 substrate (0.05 mg/ml).
Gamma-secretase was then added to a 96-well micro-titre plate and then incubated with various concentrations of inhibitor for 30 minutes at 37° C. MBPC125 substrate was then added to initiate the reaction that would run for two hours at 37° C. The reaction was quenched with the addition of SDS to a final concentration of 0.1% and then 100 μl of the reaction mixture was transferred to a capture ELISA plate and incubated overnight at 4° C. Detection of the cleavage product was performed using a standard sandwich ELISA assay and quantified using a six point standard curve.

SMILES	IC50
O=S(=O)(c1ccc(C(F)(F)F)cc1)N1c2cccnc2-c2n[nH]cc2C1C1CC1 (centres unmarked) [4-cyclopropyl-5-(4-(trifluoromethyl)phenylsulfonyl)-4,5-dihydro-2H-pyrazolo[4,3-c][1,5]naphthyridine]	0.1 to 100 nM
O=S(=O)(c1ccc(C(F)(F)F)cc1)N1c2ncccc2-c2n[nH]cc2C1C1CC1 (centres unmarked) [4-cyclopropyl-5-(4-(trifluoromethyl)phenylsulfonyl)-4,5-dihydro-2H-pyrazolo[4,3-c][1,8]naphythyridine]	0.1 to 100 nM
O=S(=O)(c1ccc(C(F)(F)F)cc1)N1c2c[n+]([O-])ccc2-c2n[nH]cc2C1C1CC1 (centres unmarked) [4-cyclopropyl-5-(4-(trifluoromethylphenylsulfonyl)-4,5-dihydro-2H-pyrazolo[4,3-c][1,7]naphthyridine 7-oxide]	0.1 to 100 nM
O=S(=O)(c1ccc(F)cc1)N1c2ncccc2-c2n[nH]cc2C1C1CC1 (centres unmarked) [4-cyclopropyl-5-(4-fluorophenylsulfonyl)-4,5-dihydro-2H-pyrazolo[4,3-c][1,8]naphthyridine]	0.1 to 100 nM
O=S(=O)(c1ccc(F)cc1)N1c2ccccc2-c2n[nH]cc2C1C1CC1 (centres unmarked) [4-cyclopropyl-5-(4-fluorophenylsulfonyl)-4,5-dihydro-2H-pyrazolo[4,3-c]quinoline]	0.1 to 100 nM
O=S(=O)(c1ccc(F)cc1)N1c2cc(F)c(F)cc2-c2n[nH]cc2C1C1CC1 (centres unmarked) [4-cyclopropyl-7,8-difluoro-5-(4-fluorophenylsulfonyl)-4,5-dihydro-2H-pyrazolo[4,3-c]quinoline]	0.1 to 100 nM
O=S(=O)(c1ccc(C(F)(F)F)cn1)N1c2cc(F)c(F)cc2-c2[nH]ncc2C1C1CC1 (centres unmarked) [4-cyclopropyl-7,8-difluoro-5-(5-(trifluoromethyl)pyridin-2-ylsulfonyl)-4,5-dihydro-1H-pyrazolo[4,3-c]quinoline]	0.1 to 100 nM
O=S(=O)(c1ccc(C(F)(F)F)nc1)N1c2cc(F)c(F)cc2-c2[nH]ncc2C1C1CC1 (centres unmarked) [4-cyclopropyl-7,8-difluoro-5-(6-(trifluoromethyl)pyridin-3-ylsulfonyl)-4,5-dihydro-1H-pyrazolo[4,3-c]quinoline]	0.1 to 100 nM
O=S(=O)(c1cccs1)N1c2cc(F)c(F)cc2-c2n[nH]cc2C1C1CC1 (centres unmarked) [4-cyclopropyl-7,8-difluoro-5-(thiophen-2-ylsulfonyl)-4,5-dihydro-2H-pyrazolo[4,3-c]quinoline]	0.1 to 100 nM
Cc1nc2c(s1)N(S(=O)(=O)c1ccc(C(F)(F)F)cc1)C(C1CC1)c1c[nH]nc1-2 (centres unmarked) [4-cyclopropyl-7-methyl-5-(4-(trifluoromethyl)phenylsulfonyl)-4,5-dihydro-1H-pyrazolo[3,4-d]thiazolo[5,4-b]pyridine]	0.1 to 100 nM
CCC1c2cn[nH]c2-c2cc(F)c(F)cc2N1S(=O)(=O)c1ccc(C(F)(F)F)cn1 (centres unmarked) [4-ethyl-7,8-difluoro-5-(5-(trifluoromethyl)pyridin-2-ylsulfonyl)-4,5-dihydro-1H-pyrazolo[4,3-c]quinoline]	0.1 to 100 nM
CC1c2c[nH]nc2-c2ccccc2N1S(=O)(=O)c1ccccn1 (centres unmarked) [4-methyl-5-(pyridin-2-ylsulfonyl)-4,5-dihydro-2H-pyrazolo[4,3-c]quinoline]	101 to 500 nM
CC1c2c[nH]nc2-c2ccc(OC(=O)N(C)C)cc2N1S(=O)(=O)c1ccc(Cl)cc1 (centres unmarked) [5-(4-chlorophenylsulfonyl)-4-methyl-4,5-dihydro-1H-pyrazolo[4,3-c]quinolin-7-yl dimethylcarbamate]	0.1 to 100 nM
O=S(=O)(c1ccc(F)cc1)N1c2ncccc2-c2n[nH]cc2C1C(F)(F)F (centres unmarked) [5-(4-fluorophenylsulfonyl)-4-(trifluoromethyl)-4,5-dihydro-2H-pyrazolo[4,3-c][1,8]naphthyridine]	0.1 to 100 nM
O=S(=O)(c1ccc(Cl)cn1)N1c2ccc(F)cc2-c2n[nH]cc2C1C1CC1 (centres unmarked) [5-(5-chloropyridin-2-ylsulfonyl)-4-cyclopropyl-8-fluoro-4,5-dihydro-1H-pyrazolo[4,3-c]quinoline]	0.1 to 100 nM
O=S(=O)(c1ccc(Cl)s1)N1c2cc(F)c(F)cc2-c2n[nH]cc2C1C1CC1 (centres unmarked) [5-(5-chlorothiophen-2-ylsulfonyl)-4-cyclopropyl-7,8-difluoro-4,5-dihydro-2H-pyrazolo[4,3-c]quinoline]	0.1 to 100 nM

More lines, now with the values ahead:

IC50	SMILES
0.1 to 100 nM	O=S(=O)(c1ccc(C(F)(F)F)nc1)N1c2ccccc2-c2[nH]ncc2C1C1CC1 (centres unmarked) [4-cyclopropyl-5-(6-(trifluoromethyl)pyridin-3-ylsulfonyl)-4,5-dihydro-1H-pyrazolo[4,3-c]quinoline]
0.1 to 100 nM	O=S(=O)(c1ccc(OC(F)(F)F)cc1)N1c2cc(F)c(F)cc2-c2[nH]ncc2C1C1CC1 (centres unmarked) [4-cyclopropyl-7,8-difluoro-5-(4-(trifluoromethoxy)phenylsulfonyl)-4,5-dihydro-1H-pyrazolo[4,3-c]quinoline]
101 to 500 nM	CC1c2cn[nH]c2-c2ccccc2N1S(=O)(=O)c1cccnc1 (centres unmarked) [4-methyl-5-(pyridin-3-ylsulfonyl)-4,5-dihydro-1H-pyrazolo[4,3-c]quinoline]
101 to 500 nM	O=S(=O)(c1ccc(Cl)cc1)N1Cc2cn[nH]c2-n2ccnc21 [5-(4-chlorophenylsulfonyl)-4,5-dihydro-1H-imidazo[1,2-a]pyrazolo[4,3-e]pyrimidine]
0.1 to 100 nM	O=S(=O)(c1ccc(Cl)cc1)N1c2ccccc2-c2n[nH]cc2C1C(F)(F)F (centres unmarked) [5-(4-chlorophenylsulfonyl)-4-(trifluoromethyl)-4,5-dihydro-2H-pyrazolo[4,3-c]quinoline]
101 to 500 nM	O=S(=O)(c1ccc(Cl)cc1)N1c2nccn2-c2[nH]ncc2C1C1CC1 (centres unmarked) [5-(4-chlorophenylsulfonyl)-4-cyclopropyl-4,5-dihydro-1H-imidazo[1,2-a]pyrazolo[4,3-e]pyrimidine]
0.1 to 100 nM	O=S(=O)(c1ccc(Cl)cc1)N1c2ccccc2-c2n[nH]cc2C1C1CC1 (centres unmarked) [5-(4-chlorophenylsulfonyl)-4-cyclopropyl-4,5-dihydro-2H-pyrazolo[4,3-c]quinoline]
0.1 to 100 nM	CCC1c2cn[nH]c2-c2ccccc2N1S(=O)(=O)c1ccc(Cl)cc1 (centres unmarked) [5-(4-chlorophenylsulfonyl)-4-ethyl-4,5-dihydro-1H-pyrazolo[4,3-c]quinoline]
0.1 to 100 nM	CC(C)C1c2c[nH]nc2-c2ccccc2N1S(=O)(=O)c1ccc(Cl)cc1 (centres unmarked) [5-(4-chlorophenylsulfonyl)-4-isopropyl-4,5-dihydro-2H-pyrazolo[4,3-c]quinoline]
0.1 to 100 nM	CC1c2cn[nH]c2-c2ccc(O)cc2N1S(=O)(=O)c1ccc(Cl)cc1 (centres unmarked) [5-(4-chlorophenylsulfonyl)-4-methyl-4,5-dihydro-1H-pyrazolo[4,3-c]quinolin-7-ol]
0.1 to 100 nM	CC1c2cn[nH]c2-c2cc(O)c(O)cc2N1S(=O)(=O)c1ccc(Cl)cc1 (centres unmarked) [5-(4-chlorophenylsulfonyl)-4-methyl-4,5-dihydro-1H-pyrazolo[4,3-c]quinoline-7,8-diol]
0.1 to 100 nM	CC1c2c[nH]nc2-c2cc3c(cc2N1S(=O)(=O)c1ccc(Cl)cc1)OCO3 (centres unmarked) [5-(4-chlorophenylsulfonyl)-4-methyl-4,5-dihydro-2H-[1,3]dioxolo[4,5-g]pyrazolo[4,3-c]quinoline]
0.1 to 100 nM	CC1c2c[nH]nc2-c2ccncc2N1S(=O)(=O)c1ccc(Cl)cc1 (centres unmarked) [5-(4-chlorophenylsulfonyl)-4-methyl-4,5-dihydro-2H-pyrazolo[4,3-c][1,7]naphthyridine]
0.1 to 100 nM	CC1c2c[nH]nc2-c2cccnc2N1S(=O)(=O)c1ccc(Cl)cc1 (centres unmarked) [5-(4-chlorophenylsulfonyl)-4-methyl-4,5-dihydro-2H-pyrazolo[4,3-c][1,8]naphthyridine]
0.1 to 100 nM	CC1c2c[nH]nc2-c2cc(O)ccc2N1S(=O)(=O)c1ccc(Cl)cc1 (centres unmarked) [5-(4-chlorophenylsulfonyl)-4-methyl-4,5-dihydro-2H-pyrazolo[4,3-c]quinolin-8-ol]
0.1 to 100 nM	CC1c2c[nH]nc2-c2ccc(F)cc2N1S(=O)(=O)c1ccc(Cl)cc1 (centres unmarked) [5-(4-chlorophenylsulfonyl)-7-fluoro-4-methyl-4,5-dihydro-2H-pyrazolo[4,3-c]quinoline]
1000 to 10000 nM	O=c1c2cn[nH]c2c2cc(F)ccc2n1S(=O)(=O)c1ccc(Cl)cc1 [5-(4-chlorophenylsulfonyl)-8-fluoro-1H-pyrazolo[4,3-c]quinolin-4(5H)-one]
0.1 to 100 nM	CC1c2c[nH]nc2-c2c(F)cccc2N1S(=O)(=O)c1ccc(Cl)cc1 (centres unmarked) [5-(4-chlorophenylsulfonyl)-9-fluoro-4-methyl-4,5-dihydro-2H-pyrazolo[4,3-c]quinoline]
0.1 to 100 nM	O=S(=O)(c1ccc(Cl)cn1)N1c2cc(F)c(F)cc2-c2[nH]ncc2C1C1CC1 (centres unmarked) [5-(5-chloropyridin-2-ylsulfonyl)-4-cyclopropyl-7,8-difluoro-4,5-dihydro-1H-pyrazolo[4,3-c]quinoline]
